Like-named read-outs stand apart in the source and are kept apart here. Where a SMILES comes first, the peptide text is derived from it. Where no end group is shown, it is not given here. The star is where a group is joined. Benzoyl(4-F) = O=C(c1ccc(F)cc1)*
Key:
[1] = tested on: integrin αvβ6-expressing DX3puroβ6 cell line; assay: Cell binding and internalization of radiotracers, DX3puroβ6 cells; format: cell-based, human; details: for Affinity and selectivity for the αvβ6(+)-expressing cell line DX3puroβ6, in words: cell binding vs DX3puro control
αvβ6 integrin = target: T1, αvβ6 integrin (Homo sapiens, UniProt P06756+P18564); assay: Competitive binding ELISA of [19F]FBA peptides for integrin αvβ6
T1 construct: purchased R&D systems (Minneapolis, Minn.)
T1 sequence (P06756 31-889 limits assumed): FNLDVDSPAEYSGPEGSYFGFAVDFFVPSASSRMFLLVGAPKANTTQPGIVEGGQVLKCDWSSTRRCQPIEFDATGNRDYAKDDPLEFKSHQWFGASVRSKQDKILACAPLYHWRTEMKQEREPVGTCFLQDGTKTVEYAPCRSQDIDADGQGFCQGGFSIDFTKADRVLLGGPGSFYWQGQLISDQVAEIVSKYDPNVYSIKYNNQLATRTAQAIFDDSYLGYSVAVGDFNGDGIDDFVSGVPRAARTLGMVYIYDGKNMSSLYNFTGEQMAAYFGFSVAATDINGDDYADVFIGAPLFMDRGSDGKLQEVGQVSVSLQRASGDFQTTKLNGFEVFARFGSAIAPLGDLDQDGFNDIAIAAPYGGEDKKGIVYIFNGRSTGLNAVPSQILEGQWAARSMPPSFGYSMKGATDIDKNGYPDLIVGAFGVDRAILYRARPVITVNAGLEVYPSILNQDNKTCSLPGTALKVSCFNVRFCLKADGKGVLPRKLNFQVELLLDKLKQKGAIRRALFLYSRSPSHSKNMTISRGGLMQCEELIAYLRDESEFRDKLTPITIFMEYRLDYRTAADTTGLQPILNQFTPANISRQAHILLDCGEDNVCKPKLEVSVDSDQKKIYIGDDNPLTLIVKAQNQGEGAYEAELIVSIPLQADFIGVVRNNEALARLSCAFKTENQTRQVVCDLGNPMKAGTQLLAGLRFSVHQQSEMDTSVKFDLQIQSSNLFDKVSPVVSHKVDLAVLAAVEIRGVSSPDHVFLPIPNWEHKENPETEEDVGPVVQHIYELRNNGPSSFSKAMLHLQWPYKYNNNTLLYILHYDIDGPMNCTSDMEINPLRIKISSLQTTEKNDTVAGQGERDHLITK
T1 sequence (P06756 891-992 limits assumed): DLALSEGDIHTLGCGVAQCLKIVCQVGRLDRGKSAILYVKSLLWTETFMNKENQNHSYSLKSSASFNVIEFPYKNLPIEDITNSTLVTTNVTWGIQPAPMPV
T1 sequence (P18564 22-707 limits assumed): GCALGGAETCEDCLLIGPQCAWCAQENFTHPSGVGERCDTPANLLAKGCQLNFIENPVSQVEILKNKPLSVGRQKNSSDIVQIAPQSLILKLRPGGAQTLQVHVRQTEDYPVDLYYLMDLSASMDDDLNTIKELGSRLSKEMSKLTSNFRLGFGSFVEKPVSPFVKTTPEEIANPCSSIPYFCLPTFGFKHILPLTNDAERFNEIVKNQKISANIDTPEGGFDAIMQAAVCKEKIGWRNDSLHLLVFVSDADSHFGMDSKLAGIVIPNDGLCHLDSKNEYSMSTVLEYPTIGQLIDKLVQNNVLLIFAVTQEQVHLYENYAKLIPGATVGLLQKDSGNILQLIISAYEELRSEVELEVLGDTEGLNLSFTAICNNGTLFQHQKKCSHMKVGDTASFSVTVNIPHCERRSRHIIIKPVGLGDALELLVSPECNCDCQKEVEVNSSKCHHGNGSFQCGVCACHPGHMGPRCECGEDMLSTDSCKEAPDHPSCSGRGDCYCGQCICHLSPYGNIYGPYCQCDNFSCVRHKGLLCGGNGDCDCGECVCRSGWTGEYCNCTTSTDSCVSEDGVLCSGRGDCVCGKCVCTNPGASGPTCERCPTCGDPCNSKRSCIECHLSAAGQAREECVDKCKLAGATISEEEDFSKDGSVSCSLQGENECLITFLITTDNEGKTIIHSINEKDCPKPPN
Protocol: Affinity of each peptide was assessed ELISA on Nunc Maxisorp Flat-bottom 96 well plates (affymetrix ebioscience, San Diego, Calif.). Integrin alpha V antibody P2W7 was purchased from Novus Biologicals (Littleton, Colo.). Bovine serum albumin (BSA) was purchased from VWR (Randor, Pa.) and TMB one solution was purchased from Promega (Madison, Wis.). αvβ6 integrin was purchased from R&D systems (Minneapolis, Minn.). Protein biotinylation kit was purchased from Amersham plc (Amersham, UK) while competing natural ligand fibronectin was purchased from Invitrogen (Carlsbad, Calif.). Affinity was measured in absorbance units by the Thermo Multiscan Plate reader with associated Ascent Software (Thermofisher, Waltham, Mass.).
The peptides were allowed to compete for 1 h with biotinylated fibronectin, a natural ligand for αvβ6; or biotinylated vitronectin, when competing against αvβ3. Briefly, a 96-well plate was coated with 50 μL/well of 5 μg/mL P2W7 in phosphate buffered saline (PBS) at 37° C. for 1 h. The plate was washed three times with PBS followed by treatment with PBS containing 5% bovine serum albumin (BSA; fraction V; w/v) and 1% Tween 20 (v/v) at 4° C. for 16 h to block nonspecific binding. The plate was washed with PBS and coated with 50 μL/well integrin in wash buffer (WaB) for 1 h and then washed three times with WaB. WaB consisted of a solution of 2 mmol/L Tris buffer (pH 7.6), 150 mmol/L sodium chloride, 1 mmol/L manganese chloride, and 0.1% Tween 20 (v/v) in deionized water. Triplicate wells were coated with 50 μL/well of a mixture of equal volumes of biotinylated fibronectin (BtFn) for αvβ6, or biotinylated vitronectin (BtVn) for αvβ3, in conjugate buffer, consisting of 1% BSA (fraction V; w/v) in WaB, and a serial dilution of peptide stock (2 mmol/L; 10% DMSO (v/v) in water) from 1 μM to 1 pM. Wells containing no peptide, no peptide and no antibody, or no peptide and no ligand served as controls. The plate was incubated for 1 h at room temperature and washed three times with WaB before ExtrAvidin-horseradish peroxidase conjugate was added (50 μL/well, 1:1,000 dilution in conjugate buffer) at room temperature for 1 h. After washing with WaB, bound BtFn or BtVn was detected by addition of TMB (50 μL/well) and incubation for 10 to 15 min. The reaction was terminated by adding 50 μL/well […] sulfuric acid and absorbance was measured at 450 nm (yellow color of acidified oxidized TMB, indicating fibronectin binding). Calculations of IC50 values are based on data analysis with Prism software (GraphPad Software).

[2] = tested on: BxPC-3 tumors (endogenous αvβ6-expression); details: 1 h; blocking with 30 mg/kg FBA-PEG28-A20FMDV2 at T=−10 min
Protocol: (PBS) or 37° C. (serum), followed by analysis on radio HPLC. Data are expressed as % probe remaining intact in sample. […] Tumor models—DX3puroβ6/DX3puro: Human melanoma cell line. DX3puroβ6 has been stably transfected to express integrin αvβ6. DX3puro is negative control cell line. […] BxPC-3: Pancreatic cell line with endogenous αvβ6-expression. MIA PaCa-2: Pancreatic cell line, no αvβ6-expression.

[3] = tested on: BxPC-3 cells (endogenous αvβ6(+)-expression); details: 60 min incubation
[4] = tested on: αvβ6-negative DX3puro control cell line; assay: Cell binding and internalization of radiotracers, DX3puro control cells; format: cell-based, human

PEG28-A20FMDV2(K16R)-PEG28
Internalization in αvβ6 cells ([1]; 1 h, basis not given): > 50% | Binding to DX3puroβ6 cells (fraction of total radioactivity) ([1]; 60 min incubation): > 70%

PEG28-A20FMDV2-GG-D(KLAKLAK)2-K
Affinity and selectivity for the αvβ6(+)-expressing cell line DX3puroβ6, in words [1]: does not affect its affinity, specificity, and internalization-potential

CC(C)C[C@H](NC(=O)[C@H](CC(=O)O)NC(=O)[C@H](CO)NC(=O)[C@@H](N)CCCNC(=N)N)C(=O)N[C@H](C(=O)N1CCC[C@H]1C(=O)N[C@@H](CC(C)C)C(=O)N[C@@H](Cc1ccccc1)C(N)=O)[C@@H](C)O (H-RSDLTPLF-NH2)
IC50 (αvβ6 integrin): 7 nM | Selectivity for αvβ6 over αvβ3 (αvβ6 integrin): 100 times

18F-FBA-PEG28-A20FMDV2-PEG28 [compound 5]
Reduction of BxPC-3 tumor uptake vs unblocked [2]: 92% | Binding to DX3puroβ6 cells (fraction of total radioactivity) ([1]; 60 min incubation): 51.0±0.9% | Internalization into DX3puroβ6 cells (of total radioactivity) ([1]; 60 min incubation): 33.5±1.8% | Binding to BxPC-3 cells (fraction of total radioactivity) [3]: 37.2±1.9% | Internalization into BxPC-3 cells (of total radioactivity) [3]: 28.4±0.9% | Binding to DX3puro control cells ([4]; 60 min incubation): 3.5±0.2% | Internalization into DX3puro control cells ([4]; 60 min incubation): 0.9±0.1%

CC(C)C[C@H](NC(=O)[C@H](CC(=O)O)NC(=O)[C@H](CO)NC(=O)[C@H](CCCNC(=N)N)NC(=O)c1ccc(F)cc1)C(=O)N[C@H](C(=O)N1CCC[C@H]1C(=O)N[C@@H](CC(C)C)C(=O)N[C@@H](Cc1ccccc1)C(N)=O)[C@@H](C)O ({Benzoyl(4-F)}-RSDLTPLF-NH2)
IC50 (αvβ6 integrin): 7 nM

D(KLAKLAK)2-GG-PEG28-A20FMDV2-K
Affinity and selectivity for the αvβ6(+)-expressing cell line DX3puroβ6, in words [1]: does not affect its affinity, specificity, and internalization-potential

c(RSDLTPLFE)K([^19F]FBA)-NH2 (RSDLTPLFEK((19F)FBA)-NH2; bridge (positions not given here); also: residues 1-9 cyclized, mode not given here)
IC50 (αvβ6 integrin; ELISA, calculated by PRISM, read-out: IC50 against αvβ6): > 300 nM

CC(C)C[C@H](NC(=O)[C@H](CC(=O)O)NC(=O)CNC(=O)[C@H](CCCNC(=N)N)NC(=O)[C@H](CC(C)C)NC(=O)[C@H](CC(N)=O)NC(=O)[C@@H]1CCCN1C(=O)[C@@H](NC(=O)[C@H](C)NC(=O)[C@H](CC(N)=O)NC(=O)CCOCCOCCOCCOCCOCCOCCOCCOCCOCCOCCOCCOCCOCCOCCOCCOCCOCCOCCOCCOCCOCCOCCOCCOCCOCCOCCOCCOCCNC(=O)c1ccc(F)cc1)C(C)C)C(=O)N[C@@H](CCC(N)=O)C(=O)N[C@H](C(=O)N[C@@H](CC(C)C)C(=O)N[C@@H](C)C(=O)N[C@@H](CCC(N)=O)C(=O)N[C@@H](CCCCN)C(=O)N[C@H](C(=O)N[C@@H](C)C(=O)N[C@@H](CCCNC(=N)N)C(=O)N[C@H](C(=O)NCCOCCOCCOCCOCCOCCOCCOCCOCCOCCOCCOCCOCCOCCOCCOCCOCCOCCOCCOCCOCCOCCOCCOCCOCCOCCOCCOCCOCCC(N)=O)[C@@H](C)O)C(C)C)C(C)C [PEGylated A20FMDV2 not bearing K(IPA)E]
Binding to DX3puroβ6 cells (fraction of total radioactivity) ([1]; 60 min incubation): 52% | Internalized share of bound radioactivity, DX3puroβ6 cells ([1]; of bound radioactivity): 44% | Binding and internalization in DX3puro control, in words [4]: low
